Here are results for 4 molecules from US12617770B2, “IRAK inhibitor and preparation method therefor and use thereof” (WUHAN CREATERNA SCIENCE AND TECHNOLOGY CO., LTD., priority 2019, dated 2026).

Data set [1] in a line: Plasma protein binding (PPB), equilibrium dialysis, human plasma. The data set is classed as in vitro ADME. The following applies: 5 h at 37° C., read-out: Plasma protein binding (Bound %) Human (converted). The protocol:
(§1) The experiment is intended to determine plasma protein binding (PPB) data of the test compounds disclosed herein.
(§2) In the PPB experiment, the final administration matrix contained the test compound or a reference compound with a concentration of 1 μM and DMSO with a content of 0.2%.
(§3) Collecting samples in initial time: 25 μL of the matrix containing the compound was added into a blank 96-well collecting plate, and the plate was stored at −20° C.
(§4) An equilibrated dialysis device was prepared. 100 μL of buffer was added to the receiving side of the equilibrium dialysis plate. Then 100 μL of the administration matrix containing the compound or the reference compound was added into an administration side of the equilibrium dialysis plate. The prepared equilibrium dialysis plate was placed in a 37° C. shaker to be shaken for 5 h at 60 rpm.
(§5) Sample was prepared at the end of cultivation (5 h): Preparing sample in the receiving side: 25 μL of sample from a receiving side was taken out and placed in a 96-well sample collecting plate, and 25 μL of a corresponding matrix (blank plasma) was added for mixing: 200 μL of ACN containing an internal standard was added, shaken for 10 minutes at 600 rpm, and centrifuged at 5594 g for 15 min.
(§6) Preparing sample in the administration side: 25 μL of the sample containing test compound and reference compound from the administration side was taken out and 25 μL of a blank buffer was added for mixing; 200 μL of ACN containing an internal standard was added, shaken for 10 minutes at 600 rpm, and centrifuged at 5594 g for 15 min.
(§7) Preparing sample in initial time: the sample containing test compound and reference compound was re-melted at 37° C. in initial time and then mixed with the corresponding matrix (blank buffer) in the same volume (25 μL); 200 μL of ACN containing an internal standard was added, shaken for 10 minutes at 600 rpm, and centrifuged at 5594 g for 15 min.
(§8) After all the samples were centrifuged, 50 μL of a supernatant was taken and added into 50 μL of ultrapure water for mixing, and the samples were sent to liquid chromatography-mass spectrometry.

A short description of data set [2]: Plasma protein binding (PPB), equilibrium dialysis, mouse plasma. The following applies: 5 h at 37° C., read-out: Plasma protein binding (Bound %) Mouse (converted). The data set is classed as in vitro ADME. The protocol:
as §1, §2, §3, §4, §5, §6, §7, §8

Another data set concerns the target T1, CYP2D6 (Homo sapiens, UniProt P10635).
T1 construct: co-incubated at 7 concentrations with human liver microsomes and five probe substrates; tissue Corning (USA); host or cells: mixed (pooled) human liver microsomes
Put plainly: CYP450 inhibition in human liver microsomes, CYP2D6. In kind it is in vitro ADME. The settings on record: human, microsomes. The protocol: (§9) This study was intended to investigate the inhibitory effect of the test compounds on 5 major enzymes in human P450 superfamily, CYP1A2, 2C9, 2C19, 2D6 and 3A4-M. The mixed human liver microsomes used in this assay were purchased from Corning (USA). The test compound (compound 14) was co-incubated at 7 concentrations with human liver microsomes and five probe substrates (phenacetin for CYP1a2, diclofenac for CYP2C9, mephenytoin for CYP2C19, dextromethorphan for CYP2D6, midazolam for CYP3A4-M, mixed). The reaction was initiated by adding coenzyme NADPH, and terminated by adding acetonitrile containing internal standard. After the proteins were precipitated, the supernatant was centrifuged. The characteristic metabolites in the supernatant (acetaminophen for CYP1A2, 4-hydroxydiclofenac for CYP2C9, 4-hydroxymephenytoin for CYP2C19, dextrorphan for CYP2D6, 1-hydroxymidazolam for CYP3A4-M) were analyzed by LC-MS/MS. The influence of the test compounds on production of the characteristic metabolites was finally analyzed on the basis of the data obtained. A selective inhibitor (ketoconazole for CYP3A4-M) may be used as positive control. All samples were tested in duplicate.

A short description of data set [3]: Plasma protein binding (PPB), equilibrium dialysis, rat plasma. In kind it is in vitro ADME. The settings on record: 5 h at 37° C., read-out: Plasma protein binding (Bound %) Rat (converted). The protocol:
as §1, §2, §3, §4, §5, §6, §7, §8

In data set [4] the target is T2, CYP3A4 (Homo sapiens, UniProt P08684).
T2 construct: The test compounds were co-incubated with the human liver microsomes and a probe substrate midazolam (CYP3A4); tissue Corning (USA); host or cells: mixed (pooled) human liver microsomes
Briefly: CYP450 inhibition in human liver microsomes, CYP3A4-M. In kind it is in vitro ADME. The settings on record: human, microsomes. The protocol: as §9

The subject of another data set is TNF-α release. Briefly: Inhibition of cytokine TNF-α release in LPS-induced Balb/c female mice. In kind it is in vivo. The settings on record: oral gavage 16 h before LPS (i.p. 0.2 mg/kg); serum 1.5 h after stimulation. The protocol: Female Balb/c mice were randomized into groups, each containing 4 mice, including a control+vehicle group, a model+vehicle group, a model+reference group and model+compound groups. The control animals received an intraperitoneal injection of normal saline (10 mL/kg) and the model animals received LPS stimulation (Sigma CAT #L2630, i.p., 10 mL/kg, 0.2 mg/kg). To the test compounds, DMSO, Solutol and 10 mM PBS were sequentially added to prepare a solution or suspension of required concentration for administration. For the vehicle, DMSO, Solutol and 10 mM PBS were mixed in a volume ratio of 5:15:80. The animals were administered through oral gavage (10 mL/kg) 16 h before LPS (or saline) stimulation at predetermined doses, and euthanized with CO2 at 1.5 h after the stimulation for cardiac blood collection. The whole blood was not anticoagulated, incubated in wet ice for 1.5 h, and centrifuged at 2000×g at 4° C. for 10 min to separate the serum. Serum was frozen at −80° C. for TNF-α assay. Quantification of TNF-α was done by TNF-α ELISA kit according to the manufacturer's instructions. The readings of absorbance at A450 were measured with a microplate reader SpectraMax i3x (Molecular Device) for calculating the inhibition of the compounds, and IC50 was calculated with GraphPad Prism 7.0 software. […] In particular, some exemplary compound inhibition rate values are as follows: […]

Data set [5] is described as follows: Pharmacokinetic study, single oral gavage dosing. In kind it is in vivo. The settings on record: mouse, 40 mg/kg, 40 mpk, 15% solutol HS15 + 85% PBS, ICR mice, plasma.
In a further data set the target is T3, human IRAK4 (Homo sapiens, UniProt Q9NWZ3).
T3 construct: purchased Cama (so in the source)
T3 sequence (Q9NWZ3 1-460): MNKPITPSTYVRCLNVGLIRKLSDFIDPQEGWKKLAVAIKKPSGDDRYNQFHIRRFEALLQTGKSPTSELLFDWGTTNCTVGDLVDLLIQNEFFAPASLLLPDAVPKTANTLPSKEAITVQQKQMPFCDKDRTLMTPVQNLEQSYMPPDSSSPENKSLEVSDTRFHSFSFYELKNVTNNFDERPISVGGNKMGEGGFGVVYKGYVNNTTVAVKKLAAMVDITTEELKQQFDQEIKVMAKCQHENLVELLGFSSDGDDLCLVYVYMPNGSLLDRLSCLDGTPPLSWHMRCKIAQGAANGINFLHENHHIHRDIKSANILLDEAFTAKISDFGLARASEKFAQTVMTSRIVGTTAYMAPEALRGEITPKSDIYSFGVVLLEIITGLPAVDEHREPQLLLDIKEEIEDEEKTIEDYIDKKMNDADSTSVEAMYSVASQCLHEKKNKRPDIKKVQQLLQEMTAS
Briefly: IRAK4 MSA (Mobility-Shift Assay) at Km concentration of ATP. The following applies: GST-IRAK4 1 nM, ATP 37 μM (Km); read-out: IC50 for inhibiting human IRAK4 activity. In kind it is biochemical. The protocol:
A recombinant fusion protein of N-terminal GST (glutathione-S-transferase) and human IRAK4 was used as enzyme (GST-IRAK4, kinase IRAK4 (Cama, CAT No. 09-145)) at a final concentration of 1 nM; ATP (Sigma. CAT No. A7699-1G) was at a final concentration of 37 μM; • the substrates used for the kinase reaction were 5-FAM (5-carboxyfluorescein)-labeled polypeptide (5-FAM-[…]-COOH) and substrate peptide FAM-P8 (GL Biochem, CAT No. 112396) at final concentrations of 5 μM.
In this assay, 500 μM stock solutions of the compounds were prepared in 100% DMSO, and serially 4-fold diluted to the 10th concentration gradient with 100% DMSO, followed by a 10-fold dilution in the compound buffer (50 mM HEPES, pH 7.5, 0.00015% Brij-35) to give intermediate dilutions of the compounds at a final concentration of 10 μM−0.04 nM containing 10% DMSO. 5 μL of the intermediate dilution was transferred into a black 384-well plate.
IRAK4 was diluted to 2.5 nM in the kinase buffer (50 mM HEPES, pH 7.5, 0.00015% Brij-35, 2 mM DTT). 10 μL of the IRAK4 dilution was transferred to the 384-well plate and co-incubated with the compound for 10-15 min.
The substrate and ATP were diluted to 12.5 μM and 92.5 μM with reaction buffer (50 mM HEPES, pH 7.5, 0.00015% Brij-35, 10 mM MgCl2), respectively. 10 μL of the dilution was transferred to a 384-well plate and incubated at 28° C. for 1 h. The reaction was terminated by adding 25 μL of 50 mM EDTA to the 384-well plate.
The inhibition rate of IRAK4 by the compounds was calculated by measuring the rate of phosphorylated substrate using a Caliper EZ Reader (PerkinElmer) and the IC50 was calculated by XL-fit software. […] In particular, some exemplary compound activity values are as follows: […]

For data set [6], the target named is T2, CYP3A4. Briefly: Time-dependent inhibition (TDI) of CYP3A4 in human liver microsomes. The following applies: probe substrate midazolam. The data set is classed as in vitro ADME. The protocol: This study was intended to investigate the time-dependent inhibition effect of the compounds on CYP3A4 in human P450 superfamily. The mixed human liver microsomes used in this assay were purchased from Corning (USA).
The test compounds were co-incubated with the human liver microsomes and a probe substrate midazolam (CYP3A4), and the concentration of the test compounds was set at 30 μM. The reaction was initiated by adding coenzyme NADPH, and terminated by adding acetonitrile dossolved with internal standard in advance. After the proteins were precipitated, the supernatant was centrifuged. The characteristic metabolite 1-hydroxy-midazolam (CYP3A4) in the supernatant was analyzed by LC-MS/MS. The influence of the test compounds on production of the characteristic metabolites was finally analyzed on the basis of the data obtained. A selective inhibitor (verapamil for CYP3A4-M) was used as positive control.

T2 sequence (P08684 whole entry): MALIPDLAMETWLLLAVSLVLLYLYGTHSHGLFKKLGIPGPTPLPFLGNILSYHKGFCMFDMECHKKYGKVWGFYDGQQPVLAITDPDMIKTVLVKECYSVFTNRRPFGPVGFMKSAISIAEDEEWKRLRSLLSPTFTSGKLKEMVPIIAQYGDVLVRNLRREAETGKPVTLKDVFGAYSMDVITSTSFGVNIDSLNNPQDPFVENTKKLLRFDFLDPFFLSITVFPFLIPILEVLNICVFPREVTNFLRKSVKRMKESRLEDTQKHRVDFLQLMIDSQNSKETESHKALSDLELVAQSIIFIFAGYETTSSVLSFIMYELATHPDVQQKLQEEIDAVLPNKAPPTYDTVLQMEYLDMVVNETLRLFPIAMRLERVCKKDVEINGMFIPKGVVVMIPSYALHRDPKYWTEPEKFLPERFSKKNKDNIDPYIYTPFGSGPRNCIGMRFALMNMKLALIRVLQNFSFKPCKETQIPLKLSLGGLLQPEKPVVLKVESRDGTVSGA
T1 sequence (P10635 whole entry): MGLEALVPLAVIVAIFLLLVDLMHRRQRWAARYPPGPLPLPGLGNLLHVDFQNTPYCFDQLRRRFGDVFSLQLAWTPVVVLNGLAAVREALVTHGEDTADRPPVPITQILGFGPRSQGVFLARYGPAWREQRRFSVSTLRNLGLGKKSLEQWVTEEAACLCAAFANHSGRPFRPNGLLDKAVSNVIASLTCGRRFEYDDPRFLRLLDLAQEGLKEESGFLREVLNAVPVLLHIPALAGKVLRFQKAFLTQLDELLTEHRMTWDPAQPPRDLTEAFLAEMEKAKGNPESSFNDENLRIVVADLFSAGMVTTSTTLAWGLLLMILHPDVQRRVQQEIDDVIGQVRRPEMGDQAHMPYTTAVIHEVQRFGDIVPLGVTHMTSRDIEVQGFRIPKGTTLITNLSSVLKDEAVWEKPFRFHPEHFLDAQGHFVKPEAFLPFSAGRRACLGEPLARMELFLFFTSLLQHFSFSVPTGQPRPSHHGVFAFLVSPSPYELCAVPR

For the molecule `CC(C)(O)CCn1cc2cc(NC(=O)c3cccc(C(F)(F)F)n3)c(C(C)(C)O)cc2n1` [A, reference compound], the values for the fraction unbound at 5 h, 1 μM in data set [1], in [2] and in data set [3] were 0.0098, 0.148 and 0.13, respectively. Moreover, the IC50 against CYP2D6 and against CYP3A4 [4] was over 30 µM each time.

`COc1cc2nn([C@H]3CC[C@H](O)CC3)cc2cc1NC(=O)c1cccc(C)[n+]1[O-]` [Compound 013, 2-((2-((1r,4r)-4-hydroxycyclohexyl)-6-methoxy-2H-indazol-5-yl)carbamoyl)-6-methylpyridine 1-oxide]: the fraction unbound at 5 h, 1 μM in data set [1] is 0.191; in data set [2] it was 0.238; in data set [3], 0.183. In addition, the “Inhibition rate (%) of TNF-α” value in the data set with TNF-α release came out at 76.29%. The AUC(0-t) in data set [5] (read-out: Area under curve AUC0-t) came to 160 µg·h/mL. In [5] (read-out: Area under curve AUC0-∞), the AUC(0-inf) amounted to 182 µg·h/mL. The MRT in data set [5] (read-out: Average retention time MRT) was found to be 10.4 h. Besides, the half-life in data set [5] (read-out: Half life t1/2 (converted)) was 434 min. Also, the Cmax in [5] (read-out: Peak concentration Cmax) came out at 18900 ng/mL. In addition, in [5] (read-out: Time to peak tmax), the Tmax was 1 h. Moreover, the IC50 at human IRAK4 stood at 7.6 nM.

Take `COc1cc2nn([C@H]3CC[C@H](O)CC3)cc2cc1NC(=O)c1cccc(C2CC2)[n+]1[O-]` [Compound 014, 2-cyclopropyl-6-((2-((1r,4r)-4-hydroxycyclohexyl)-6-methoxy-2H-indazol-5-yl)carbamoyl)pyridine 1-oxide]: at CYP3A4 [6], the “TDI (3A4, 30 μM)” value is reported as “+3.85%”.

As to `CCOc1cc2nn([C@H]3CC[C@H](O)CC3)cc2cc1NC(=O)c1cccc(C)[n+]1[O-]` [Compound 016, 2-((6-ethoxy-2-((1r,4r)-4-hydroxycyclohexyl)-2H-indazol-5-yl)carbamoyl)-6-methylpyridine 1-oxide], the fraction unbound at 5 h, 1 μM was 0.131 in data set [1], 0.123 in data set [2] and 0.099 in data set [3]. The “Inhibition rate (%) of TNF-α” value in the data set with TNF-α release is reported as 78.71%. Moreover, the IC50 on human IRAK4 is 8.1 nM.
